# Reference: ChEMBL document CHEMBL1201862, “PubChem BioAssay data set” (2004)
#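 The compound was tested at five concentrations on cells cultured in 96-well plates, with a 48-hour exposure period. GI50 marks 50% less growth.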 Active and inactive are the calls of the source. No stated cut-off is given here; in the data, active = GI50 up to about 1.1 µM and inactive = higher.
# Key:
# Test in all cases: NCI-60 cell line screen, 48 h
# 786-0 = tested on: 786-0
# HOP-92 = tested on: HOP-92
# MCF7 = tested on: MCF7
# HCT-116 = tested on: HCT-116
# DU-145 = tested on: DU-145
# OVCAR-8 = tested on: OVCAR-8
# SK-MEL-5 = tested on: SK-MEL-5
# ACHN = tested on: ACHN
# LOX IMVI = tested on: LOX IMVI
# TK-10 = tested on: TK-10
# NCI-H460 = tested on: NCI-H460
# SF-539 = tested on: SF-539
# SNB-75 = tested on: SNB-75
# SF-295 = tested on: SF-295
# OVCAR-3 = tested on: OVCAR-3
# U-251 = tested on: U-251
# CAKI-1 = tested on: CAKI-1
# RPMI-8226 = tested on: RPMI-8226
# UACC-62 = tested on: UACC-62
# PC-3 = tested on: PC-3
# M14 = tested on: M14
# NCI-H23 = tested on: NCI-H23
# SK-MEL-28 = tested on: SK-MEL-28
# MOLT-4 = tested on: MOLT-4
# SF-268 = tested on: SF-268
# IGROV-1 = tested on: IGROV-1
# SW-620 = tested on: SW-620
# HT-29 = tested on: HT-29
# UACC-257 = tested on: UACC-257
# A549 = tested on: A549
# NCI-H522 = tested on: NCI-H522
# KM12 = tested on: KM12
# CCRF-CEM = tested on: CCRF-CEM
# COLO 205 = tested on: COLO 205
# OVCAR-4 = tested on: OVCAR-4
# EKVX = tested on: EKVX
# T47D = tested on: T47D
# Malme-3M = tested on: Malme-3M
# MDA-MB-231 = tested on: MDA-MB-231
# K562 = tested on: K562
# BT-549 = tested on: BT-549
# SK-OV-3 = tested on: SK-OV-3
# MDA-MB-435 = tested on: MDA-MB-435
# HL-60 = tested on: HL-60
# HCC 2998 = tested on: HCC 2998
# HCT-15 = tested on: HCT-15
# SR = tested on: SR
# UO-31 = tested on: UO-31
# Hs-578T = tested on: Hs-578T
# HOP-62 = tested on: HOP-62
# A498 = tested on: A498
# OVCAR-5 = tested on: OVCAR-5
# NCI/ADR-RES = tested on: NCI/ADR-RES
# SN12C = tested on: SN12C
# RXF 393 = tested on: RXF 393
# SNB-19 = tested on: SNB-19
# NCI-H226 = tested on: NCI-H226
# SK-MEL-2 = tested on: SK-MEL-2
# MDA-N = tested on: MDA-N
compound,measurement,setting,value
Cc1cc2[nH]c(Cl)c(/C=C3\C(=O)Nc4ccccc43)c2cc1O,GI50,786-0,5.4 µM (inactive)
same,GI50,HOP-92,8.93 µM (inactive)
same,GI50,MCF7,1.88 µM (inactive)
same,GI50,HCT-116,2.8 µM (inactive)
same,GI50,DU-145,2.86 µM (inactive)
same,GI50,OVCAR-8,3.75 µM (inactive)
same,GI50,SK-MEL-5,1.2 µM (inactive)
same,GI50,ACHN,6.53 µM (inactive)
same,GI50,LOX IMVI,3.16 µM (inactive)
same,GI50,TK-10,9.71 µM (inactive)
same,GI50,NCI-H460,3.91 µM (inactive)
same,GI50,SF-539,1.17 µM (inactive)
same,GI50,SNB-75,3.45 µM (inactive)
same,GI50,SF-295,2.79 µM (inactive)
same,GI50,OVCAR-3,4.61 µM (inactive)
same,GI50,U-251,2.26 µM (inactive)
same,GI50,CAKI-1,5.25 µM (inactive)
same,GI50,RPMI-8226,2.7 µM (inactive)
same,GI50,UACC-62,1.23 µM (inactive)
same,GI50,PC-3,2.2 µM (inactive)
same,GI50,M14,2.88 µM (inactive)
same,GI50,NCI-H23,2.32 µM (inactive)
same,GI50,SK-MEL-28,9.71 µM (inactive)
same,GI50,MOLT-4,1.46 µM (inactive)
same,GI50,SF-268,4.69 µM (inactive)
same,GI50,IGROV-1,1.8 µM (inactive)
same,GI50,SW-620,1.81 µM (inactive)
same,GI50,HT-29,4.07 µM (inactive)
same,GI50,UACC-257,11.2 µM (inactive)
same,GI50,A549,5.08 µM (inactive)
same,GI50,NCI-H522,1.5 µM (inactive)
same,GI50,KM12,2.92 µM (inactive)
same,GI50,CCRF-CEM,1.2 µM (inactive)
same,GI50,COLO 205,13.8 µM (inactive)
same,GI50,OVCAR-4,7.52 µM (inactive)
same,GI50,EKVX,4.7 µM (inactive)
same,GI50,T47D,10.9 µM (inactive)
same,GI50,Malme-3M,1.6 µM (inactive)
same,GI50,MDA-MB-231,3.09 µM (inactive)
same,GI50,K562,0.957 µM (active)
same,GI50,BT-549,6.53 µM (inactive)
same,GI50,SK-OV-3,4.83 µM (inactive)
same,GI50,MDA-MB-435,0.29 µM (active)
same,GI50,HL-60,1.14 µM (inactive)
same,GI50,HCC 2998,4.2 µM (inactive)
same,GI50,HCT-15,1.66 µM
same,GI50,SR,0.228 µM (active)
same,GI50,UO-31,4.45 µM (inactive)
same,GI50,Hs-578T,4.18 µM (inactive)
same,GI50,HOP-62,4.93 µM (inactive)
same,GI50,A498,4.05 µM (inactive)
same,GI50,OVCAR-5,6.46 µM (inactive)
same,GI50,NCI/ADR-RES,3.25 µM (inactive)
same,GI50,SN12C,3.38 µM (inactive)
same,GI50,RXF 393,2.25 µM (inactive)
same,GI50,SNB-19,3.27 µM (inactive)
same,GI50,NCI-H226,0.542 µM (active)
same,GI50,SK-MEL-2,2.1 µM (inactive)
same,GI50,MDA-N,0.379 µM (active)
